Results published in PubChem BioAssay (NCI).
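GI50 marks 50% less growth. TGI denotes the concentration required for complete inhibition of growth.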

Tests used:
Assay in all cases: NCI-60 cell line screen, 384-well format
[1] = system: 786-0 renal
[2] = system: A498 renal
[3] = system: A549 NSCLC
[4] = system: ACHN renal
[5] = system: BT-549 breast
[6] = system: CAKI-1 renal
[7] = system: CCRF-CEM leukemia
[8] = system: COLO 205 colon
[9] = system: DU-145 prostate
[10] = system: EKVX NSCLC
[11] = system: HCC-2998 colon
[12] = system: HCT-116 colon
[13] = system: HCT-15 colon
[14] = system: HL-60(TB) leukemia
[15] = system: HOP-62 NSCLC
[16] = system: HOP-92 NSCLC
[17] = system: HS 578T breast
[18] = system: HT29 colon
[19] = system: IGROV1 ovarian
[20] = system: K-562 leukemia
[21] = system: KM12 colon
[22] = system: LOX IMVI melanoma
[23] = system: M14 melanoma
[24] = system: MALME-3M melanoma
[25] = system: MCF7 breast
[26] = system: MDA-MB-231 breast
[27] = system: MDA-MB-435 melanoma
[28] = system: MDA-MB-468 breast
[29] = system: MOLT-4 leukemia
[30] = system: NCI-H226 lung
[31] = system: NCI-H23 lung
[32] = system: NCI-H322M lung
[33] = system: NCI-H460 NSCLC
[34] = system: NCI-H522 lung
[35] = system: NCI/ADR-RES ovarian
[36] = system: OVCAR-3 ovarian
[37] = system: OVCAR-4 ovarian
[38] = system: OVCAR-5 ovarian
[39] = system: PC-3 prostate
[40] = system: RPMI-8226 leukemia
[41] = system: RXF 393 renal
[42] = system: SF-268 CNS
[43] = system: SF-295 CNS
[44] = system: SF-539 CNS
[45] = system: SK-MEL-2 melanoma
[46] = system: SK-MEL-28 melanoma
[47] = system: SK-MEL-5 melanoma
[48] = system: SK-OV-3 ovarian
[49] = system: SN12C renal
[50] = system: SNB-19 CNS
[51] = system: SNB-75 CNS
[52] = system: SR leukemia
[53] = system: SW-620 colon
[54] = system: T-47D breast
[55] = system: TK-10 renal
[56] = system: U251 glioblastoma
[57] = system: UACC-257 melanoma
[58] = system: UACC-62 melanoma
[59] = system: UO-31 renal

CCCCc1nc2cc(/C=C/C(=O)NO)ccc2n1CCN(CC)CC
GI50 [1]: 0.317 µM | TGI [1]: 2 µM | GI50 [2]: 0.298 µM | TGI [2]: 1.07 µM | GI50 [3]: 0.321 µM | TGI [3]: 1.27 µM | GI50 [4]: 0.221 µM | TGI [4]: 0.955 µM | GI50 [5]: 0.23 µM | TGI [5]: 1.16 µM | GI50 [6]: 0.206 µM | TGI [6]: 0.709 µM | GI50 [7]: 0.0623 µM | TGI [7]: 0.206 µM | GI50 [8]: 0.178 µM | TGI [8]: 0.419 µM | GI50 [9]: 0.12 µM | TGI [9]: 0.375 µM | GI50 [10]: 0.649 µM | TGI [10]: 4.32 µM | GI50 [11]: 0.106 µM | TGI [11]: 0.414 µM | GI50 [12]: 0.125 µM | TGI [12]: 0.377 µM | GI50 [13]: 0.483 µM | TGI [13]: 2.11 µM | GI50 [14]: 0.144 µM | TGI [14]: 0.28 µM | GI50 [15]: 0.25 µM | TGI [15]: 1.64 µM | GI50 [16]: 0.176 µM | TGI [16]: 0.518 µM | GI50 [17]: 0.125 µM | TGI [17]: 0.317 µM | GI50 [18]: 0.203 µM | TGI [18]: 0.809 µM | GI50 [19]: 0.119 µM | TGI [19]: 0.539 µM | GI50 [20]: 0.0175 µM | TGI [20]: 0.205 µM | GI50 [21]: 0.28 µM | TGI [21]: 1.42 µM | GI50 [22]: 0.203 µM | TGI [22]: 0.588 µM | GI50 [23]: 0.358 µM | TGI [23]: 1.71 µM | GI50 [24]: 0.13 µM | TGI [24]: 0.402 µM | GI50 [25]: 0.185 µM | TGI [25]: 1.13 µM | GI50 [26]: 0.187 µM | TGI [26]: 0.613 µM | GI50 [27]: 0.226 µM | TGI [27]: 0.616 µM | GI50 [28]: 0.134 µM | TGI [28]: 0.356 µM | GI50 [29]: 0.0309 µM | TGI [29]: 0.197 µM | GI50 [30]: 0.697 µM | TGI [30]: 2.1 µM | GI50 [31]: 0.296 µM | TGI [31]: 1.44 µM | GI50 [32]: 0.206 µM | TGI [32]: 1.14 µM | GI50 [33]: 0.235 µM | TGI [33]: 1.32 µM | GI50 [34]: 0.0343 µM | TGI [34]: 0.247 µM | GI50 [35]: 0.489 µM | TGI [35]: 2.33 µM | GI50 [36]: 0.181 µM | TGI [36]: 0.974 µM | GI50 [37]: 0.392 µM | TGI [37]: 1.95 µM | GI50 [38]: 0.119 µM | TGI [38]: 0.484 µM | GI50 [39]: 0.185 µM | TGI [39]: 0.689 µM | GI50 [40]: < 0.01 µM | TGI [40]: 0.017 µM | GI50 [41]: < 0.01 µM | TGI [41]: 0.237 µM | GI50 [42]: 0.174 µM | TGI [42]: 0.602 µM | GI50 [43]: 0.186 µM | TGI [43]: 0.397 µM | GI50 [44]: 0.415 µM | TGI [44]: 2.48 µM | GI50 [45]: 0.169 µM | TGI [45]: 0.339 µM | GI50 [46]: 0.179 µM | TGI [46]: 0.465 µM | GI50 [47]: 0.129 µM | TGI [47]: 0.29 µM | GI50 [48]: 0.239 µM | TGI [48]: 0.911 µM | GI50 [49]: 0.286 µM | TGI [49]: 1.29 µM | GI50 [50]: 0.511 µM | TGI [50]: 1.98 µM | GI50 [51]: 0.119 µM | TGI [51]: 1.63 µM | GI50 [52]: < 0.01 µM | TGI [52]: 0.107 µM | GI50 [53]: 0.166 µM | TGI [53]: 0.334 µM | GI50 [54]: 0.136 µM | TGI [54]: 0.31 µM | GI50 [55]: 0.258 µM | TGI [55]: 0.948 µM | GI50 [56]: 0.174 µM | TGI [56]: 0.503 µM | GI50 [57]: 0.178 µM | TGI [57]: 0.561 µM | GI50 [58]: 0.0834 µM | TGI [58]: 0.235 µM | GI50 [59]: 0.0829 µM | TGI [59]: 1.52 µM
